Reference: patent publication EP2385948B1, “FUSED THIAZOLO AND OXAZOLO PYRIMIDINONES” (Torrent Pharmaceuticals Limited, priority 2009, dated 2011)
Where a name gives a salt, the structure may show the parent alone.

System: erythropoietin
Assay: In vitro erythropoietin induction (ELISA of cell culture supernatant)
Conditions: for fold induction at 200 µM: read-out: EPO fold induction, Hep3B cell line, 200 uM, 16 hours, relative to vehicle control; for EPO fold induction: Hep3B cell line, 16 hours, relative to vehicle control
Method: Hep3B cell line (ATCC HB8064) was employed. Induction of erythropoietin was carried out for the indicated dose of compounds for 16 hours duration. At the end of 16 hours, cell culture medium was collected and centrifuged to remove any debris. Supernatant obtained was analyzed for erythropoietin by ELISA (R&D systems, USA). The results were expressed as fold induction as compared to vehicle control.

## CC(C)(C)C(=O)N1CCc2c(sc3nc(O)c(C(=O)NCC(=O)O)c(=O)n23)C1 [Compound 20, {[7-(2,2-Dimethyl-propionyl)-2-hydroxy-4-oxo-5,6,7,8-tetrahydro-4H-9-thia-1,4a,7-triaza-fluorene-3-carbonyl]-amino}-acetic acid]
Homo sapiens, Hep3B, 16 h
  fold induction at 200 µM: 5 to 8

## O=C(O)CNC(=O)c1c(O)nc2sc3c(n2c1=O)CCN(Cc1ccc2c(c1)CCC2)C3 [Compound 39, [(2-Hydroxy-7-indan-5-ylmethyl-4-oxo-5,6,7,8-tetrahydro-4H-9-thia-1,4a,7-triaza-fluorene-3-carbonyl)-amino]-acetic acid]
Homo sapiens, Hep3B, 16 h
  fold induction at 200 µM: 2 to 4

## CC(C)S(=O)(=O)N1CCc2c(sc3nc(O)c(C(=O)NCC(=O)O)c(=O)n23)C1 [Compound 5, {[2-Hydroxy-4-oxo-7-(propane-2-sulfonyl)-5,6,7,8-tetrahydro-4H-9-thia-1,4a,7-triaza-fluorene-3-carbonyl]-amino}-acetic acid]
Homo sapiens, Hep3B, 16 h
  fold induction at 200 µM: 2 to 4

## O=C(O)CNC(=O)c1c(O)nc2sc3c(n2c1=O)CCN(C(=O)C1CC1)C3 [Compound 9, [(7-Cyclopropanecarbonyl-2-hydroxy-4-oxo-5,6,7,8-tetrahydro-4H-9-thia-1,4a,7-triaza-fluorene-3-carbonyl)-amino]-acetic acid]
Homo sapiens, Hep3B, 16 h
  fold induction at 200 µM: 5 to 8

## C[C@@H](NC(=O)c1c(O)nc2sc3c(n2c1=O)CCC(C)(C)C3)C(=O)O [Compound 44, 2-[(2-Hydroxy-7,7-dimethyl-4-oxo-5,6,7,8-tetrahydro-4H-9-thia-1,4a-diaza-fluorene-3-carbonyl)-amino]-propionic acid (D-isomer)]
Homo sapiens, Hep3B, 16 h
  fold induction at 200 µM: < 2

## O=C(O)CNC(=O)c1c(O)nc2sc3c(n2c1=O)CCCC3 [Compound 1, [(2-Hydroxy-4-oxo-5,6,7,8-tetrahydro-4H-9-thia-1,4a-diaza-fluorene-3-carbonyl)-amino]-acetic acid]
50 uM
  EPO fold induction: +++ (+++ indicates 5-8 fold)

## O=C(O)CNC(=O)c1c(O)nc2sc3c(n2c1=O)CCN(C(=O)c1ccc(Cl)nc1)C3 [Compound 33, {[7-(6-Chloro-pyridine-3-carbonyl)-2-hydroxy-4-oxo-5,6,7,8-tetrahydro-4H-9-thia-1,4a,7-triaza-fluorene-3-carbonyl]-amino}-acetic acid]
Homo sapiens, Hep3B, 16 h
  fold induction at 200 µM: 2 to 4

## O=C(O)CCNC(=O)c1c(O)nc2sc3c(n2c1=O)CCCCC3 [Compound 30, 3-[(2-Hydroxy-4-oxo-6,7,8,9-tetrahydro-4H,5H-10-thia-1,4a-diaza-benzo[a]azulene-3-carbonyl)-amino]-propionic acid]
Homo sapiens, Hep3B, 16 h
  fold induction at 200 µM: < 2

## O=C(O)CNC(=O)c1c(O)nc2sc3c(n2c1=O)CCN(C(=O)c1ccc(F)cc1)C3 [Compound 16, {[7-(4-Fluoro-benzoyl)-2-hydroxy-4-oxo-5,6,7,8-tetrahydro-4H-9-thia-1,4a,7-triaza-fluorene-3-carbonyl]-amino}-acetic acid]
Homo sapiens, Hep3B, 16 h
  fold induction at 200 µM: 5 to 8

## CC(C)CC(=O)N1CCc2c(sc3nc(O)c(C(=O)NCC(=O)O)c(=O)n23)C1 [Compound 4, {[2-Hydroxy-7-(3-methyl-butyryl)-4-oxo-5,6,7,8-tetrahydro-4H-9-thia-1,4a,7-triaza-fluorene-3-carbonyl]-amino}-acetic acid]
Homo sapiens, Hep3B, 16 h
  fold induction at 200 µM: 2 to 4

## {[7-(3,5-Dimethoxy-benzoyl)-2-hydroxy-4-oxo-5,6,7,8-tetrahydro-4H-9-thia-1,4a,7-triaza-fluorene-3-carbonyl]-amino}-acetic acid [Compound 41]
200 uM
  EPO fold induction: ++ (++ indicates 2-4 fold)

## O=C(O)CNC(=O)c1c(O)nc2sc3c(n2c1=O)CCN(C(=O)OCc1ccccc1)C3 [Compound 26, 3-(Carboxymethyl-carbamoyl)-2-hydroxy-4-oxo-5,8-dihydro-4H,6H-9-thia-1,4a,7-triaza-fluorene-7-carboxylic acid benzyl ester]
Homo sapiens, Hep3B, 16 h
  fold induction at 200 µM: 9 to 16

## O=C(O)CNC(=O)c1c(O)nc2sc3c(n2c1=O)CCN(Cc1cc(C(F)(F)F)cc(C(F)(F)F)c1)C3 [Compound 46, {[7-(3,5-Bis-trifluoromethyl-benzyl)-2-hydroxy-4-oxo-5,6,7,8-tetrahydro-4H-9-thia-1,4a,7-triaza-fluorene-3-carbonyl]-amino}-acetic acid]
Homo sapiens, Hep3B, 16 h, read-out: EPO fold induction, Hep3B cell line, 50 uM, 16 hours, relative to vehicle control
  fold induction at 50 µM: 2 to 4

## CS(=O)(=O)c1ccc(C(=O)N2CCc3c(sc4nc(O)c(C(=O)NCC(=O)O)c(=O)n34)C2)cc1 [Compound 42, {[2-Hydroxy-7-(4-methanesulfonyl-benzoyl)-4-oxo-5,6,7,8-tetrahydro-4H-9-thia-1,4a,7-triaza-fluorene-3-carbonyl]-amino}-acetic acid]
Homo sapiens, Hep3B, 16 h
  fold induction at 200 µM: 5 to 8

## O=C(O)CNC(=O)c1c(O)nc2sc3c(n2c1=O)CCC1(CC1)C3 [Compound 70, N-[(2'-hydroxy-4'-oxo-6',9'-dihydro-4'H,7'H-spiro[cyclopropane-1,8'-pyrimido[2,1-b][1,3]benzothiazol]-3'-yl)carbonyl]glycine]
Homo sapiens, Hep3B, 16 h
  fold induction at 200 µM: 2 to 4

## CN(CC(=O)O)C(=O)c1c(O)nc2sc3c(n2c1=O)CCC(C)(C)C3 [Compound 61, [(2-Hydroxy-7,7-dimethyl-4-oxo-5,6,7,8-tetrahydro-4H-9-thia-1,4a-diaza-fluorene-3-carbonyl)-methyl-amino] -acetic acid]
Homo sapiens, Hep3B, 16 h
  fold induction at 200 µM: < 2

## O=C(O)CNC(=O)c1c(O)nc2sc3c(n2c1=O)CCCCCC3 [Compound 38, [(2-Hydroxy-4-oxo-5,6,7,8,9,10-hexahydro-4H-11-thia-1,4a-diaza-cycloocta[a]indene-3-carbonyl)-amino]-acetic acid]
Homo sapiens, Hep3B, 16 h
  fold induction at 200 µM: 9 to 16

## CC(C)(C)C1CCc2c(sc3nc(O)c(C(=O)NCC(=O)O)c(=O)n23)C1 (centres unmarked) [Compound 13, [(7-tert-Butyl-2-hydroxy-4-oxo-5,6,7,8-tetrahydro-4H-9-thia-1,4a-diaza-fluorene-3-carbonyl)-amino]-acetic acid]
Homo sapiens, Hep3B, 16 h
  fold induction at 200 µM: < 2

## CC1(C)CCc2c(sc3nc(O)c(C(=O)NCC(=O)O)c(=O)n23)C1 [Compound 80, [(2-Hydroxy-7,7-dimethyl-4-oxo-5,6,7,8-tetrahydro-4H-9-thia-1,4a-diaza-fluorene-3-carbonyl)-amino]-acetic acid, Disodium salt]
200 uM, Disodium salt, 960 min
  EPO fold induction: ++++ (++++ indicates 9-16fold)

## O=C(O)CNC(=O)c1c(O)nc2sc3c(n2c1=O)CCN(C(=O)Nc1ccccc1)C3 [Compound 8, [(2-Hydroxy-4-oxo-7-phenylcarbamoyl-5,6,7,8-tetrahydro-4H-9-thia-1,4a,7-triaza-fluorene-3-carbonyl)-amino]-acetic acid]
Homo sapiens, Hep3B, 16 h
  fold induction at 200 µM: 2 to 4

## CC1(C)CCc2c(sc3nc(O)c(C(=O)N[C@H](C(=O)O)c4ccccc4)c(=O)n23)C1 [Compound 55, [(2-Hydroxy-7,7-dimethyl-4-oxo-5,6,7,8-tetrahydro-4H-9-thia-1,4a-diaza-fluorene-3-carbonyl)-amino]-phenyl-acetic acid, L-isomer]
Homo sapiens, Hep3B, 16 h
  fold induction at 200 µM: < 2

## O=C(O)CNC(=O)c1c(O)nc2sc3c(n2c1=O)CCN(c1ccc(C(F)(F)F)cn1)C3 [Compound 18, {[2-Hydroxy-4-oxo-7-(5-trifluoromethyl-pyridin-2-yl)-5,6,7,8-tetrahydro-4H-9-thia-1,4a,7-triaza-fluorene-3-carbonyl]-amino}-acetic acid]
Homo sapiens, Hep3B, 16 h
  fold induction at 200 µM: 9 to 16

## CC1(C)CCc2c(sc3nc(O)c(C(=O)NC(C)(C)C(=O)O)c(=O)n23)C1 [Compound 54, 2-[(2-Hydroxy-7,7-dimethyl-4-oxo-5,6,7,8-tetrahydro-4H-9-thia-1,4a-diaza-fluorene-3-carbonyl)-amino]-2-methyl-propionic acid]
Homo sapiens, Hep3B, 16 h
  fold induction at 200 µM: < 2

## O=C(O)CNC(=O)c1c(O)nc2sc3c(n2c1=O)CCC(c1ccccc1)C3 (centres unmarked) [Compound 64, [(2-Hydroxy-4-oxo-7-phenyl-5,6,7,8-tetrahydro-4H-9-thia-1,4a-diaza-fluorene-3-carbonyl)-amino]-acetic acid]
Homo sapiens, Hep3B, 16 h
  fold induction at 200 µM: < 2

## O=C([O-])CNC(=O)c1c(O)nc2sc3c(n2c1=O)CCCC3.[Na+]
50 uM
  EPO fold induction: ++ (++ indicates 2-4 fold)

## O=C(NC1(C(=O)O)CCCC1)c1c(O)nc2sc3c(n2c1=O)CCCC3 [Compound 6, 1-[(2-Hydroxy-4-oxo-5,6,7,8-tetrahydro-4H-9-thia-1,4a-diaza-fluorene-3-carbonyl)-amino]-cyclopentanecarboxylic acid]
Homo sapiens, Hep3B, 16 h
  fold induction at 200 µM: < 2

## O=C(O)CNC(=O)c1c(O)nc2sc3c(n2c1=O)CCS(=O)(=O)C3 [Compound 67, [(2-Hydroxy-4,7,7-trioxo-5,6,7,8-tetrahydro-4H-71ambda*6*,9-dithia-1,4a-diaza-fluorene-3-carbonyl)-amino]-acetic acid]
Homo sapiens, Hep3B, 16 h
  fold induction at 200 µM: 2 to 4

## O=C(O)CNC(=O)c1c(O)nc2sc3c(n2c1=O)CCOC3 [Compound 65, [(2-Hydroxy-4-oxo-5,8-dihydro-4H,6H-7-oxa-9-thia-1,4a-diaza-fluorene-3-carbonyl)-amino]-acetic acid]
Homo sapiens, Hep3B, 16 h
  fold induction at 200 µM: 5 to 8

## CCC1(CC)CCc2c(sc3nc(O)c(C(=O)NCC(=O)O)c(=O)n23)C1 [Compound 53, [(7,7-Diethyl-2-hydroxy-4-oxo-5,6,7,8-tetrahydro-4H-9-thia-1,4a-diaza-fluorene-3-carbonyl)-amino]-acetic acid]
Homo sapiens, Hep3B, 16 h
  fold induction at 200 µM: < 2

## O=C(O)CNC(=O)c1c(O)nc2sc3c(n2c1=O)CCC(C(=O)O)C3 (centres unmarked) [Compound 72, 3-(Carboxymethyl-carbamoyl)-2-hydroxy-4-oxo-5,6,7,8-tetrahydro-4H-9-thia-1,4a-diaza-fluorene-7-carboxylic acid]
Homo sapiens, Hep3B, 16 h
  fold induction at 200 µM: < 2

## CC1(C)CCc2sc3nc(O)c(C(=O)NCC(=O)O)c(=O)n3c2C1 [Compound 60, [(2-Hydroxy-6,6-dimethyl-4-oxo-5,6,7,8-tetrahydro-4H-9-thia-1,4a-diaza-ftuorene-3-carbonyl)-amino]-acetic acid]
Homo sapiens, Hep3B, 16 h
  fold induction at 200 µM: 5 to 8

## O=C(O)CNC(=O)c1c(O)nc2sc3c(n2c1=O)CCN(C(=O)Cc1ccc(Cl)cc1)C3 [Compound 28, ({7-[2-(4-Chloro-phenyl)-acetyl]-2-hydroxy-4-oxo-5,6,7,8-tetrahydro-4H-9-thia-1,4a,7-triaza-fluorene-3-carbonyl}-amino)-acetic acid]
Homo sapiens, Hep3B, 16 h
  fold induction at 200 µM: 9 to 16
